Data set [1] concerns SOCE. More on the design: method as in PMID 30347159. Conditions: cited from earlier work.
Data set [2] has as its system cerulein-induced AP. Further details: method as in PMID 30347159. As to conditions: rodents; cited from earlier work.
The subject of data set [3] is cerulein-induced murine model of AP. The experiment in a line: Cerulein-induced murine model of AP. It is filed as in vivo, mouse. As to conditions: 10 mg/kg i.p. 30 and 150 min after first cerulein injection; tissue collected at 5 h. How it is done: The PK profile of our candidate prompted us to investigate its efficacy in a cerulein-induced murine model of AP.[29]
(§1) All animal experiments observe the regulations in Italy (D.M. 116192) as well as the EU regulations (O.J. of E.C. L 358/1 12/18/1986). Compound 34 was injected i.v. at a dose of 7 mg/kg in C57BL/6 mice. Blood was collected after 5, 15, 30, 60, 120, 240, 360 min and 24 h. Aliquots of plasma samples were analyzed as previously reported.[16] AP was induced in mice by i.p. injections of cerulein, as already reported elsewhere.[16]

Data set [4] deals with SOCE. Briefly: SOCE inhibition in HEK cells by fluorescence microscopy (calcium imaging). The data set is classed as cell-based, human. Conditions: HEK cells, Figure S1. How it is done: With these two compounds in hand, two click reactions were performed and compounds 9 and 18 (Table 1), displaying the same substructures as the reference compound Synta66, were obtained with a yield of 31 and 60%, respectively. 9 and 18 were tested for activity on SOCE in HEK cells, a human embryonic kidney (HEK) cell line, by fluorescence microscopy, as described elsewhere.[16] After 600 s, Ca^2+ was added and intracellular levels were measured.
Screening, dose–response experiments, and calcium imaging experiments were performed in HEK cells (ATCC, Rock, ville, MD, USA), as already reported elsewhere.[16]

Data set [5] can be described thus: Thermodynamic aqueous solubility and solubility in in vivo vehicles. The data set is classed as physicochemical. The procedure:
Thermodynamic aqueous solubility was determined as follows: about 3 mg of the tested compound was weighed and dissolved in 3 mL of deionized water. After vigorous mixing by vortex followed by sonication for 5 min, the resulting supersaturated solution was shaken horizontally overnight at 25 °C. After filtration over a syringe filter (pore 0.22 μm, regenerate cellulose membrane), 100 μL of DMSO was added to 1 mL of the filtered solution. The resulting solution was further diluted in water (typically 1:10) before LC–UV analysis. Aqueous solubility was calculated comparing the filtrate peak area to those of the tested compound DMSO solutions. Solubility in aqueous media was also checked in the following vehicles at the target concentration of 6 mg/mL: saline + 10% DMSO, saline + 10% DMSO + 20% PEG400, saline + 5% ethanol.

Data set [6] relates to HEK cells. Briefly: HEK cell viability after 72 h at 50 μM with or without uridine (involvement of DHODH). Conditions: up to 60 μM.
Data set [7] is described as follows: PK analysis in mice. The data set is classed as in vivo. As to conditions: C57BL/6, mouse, plasma, 7 mg/kg. How it is done: To further characterize the compound, a PK analysis was performed in mice. Briefly, mice were injected with 34 (i.v., 7 mg/kg, once) and serial blood sampling was performed.
as §1
In vivo PK evaluation of compound 34.
Table S6. PK parameters of single administration of compound 34 (e.v., 7 mg/kg, n=5)
Parameter Unit Value S.D.

Data set [8] can be described thus: In vitro metabolic stability in mouse liver microsomes. The data set is classed as in vitro ADME. Conditions: MLMs, 50 μM substrate, 3 mM GSH trapping agent, HRMS. The procedure:
Next, the in vitro metabolic stability of the five candidates (31, 34, 36, 38, and 40) was evaluated in mouse liver microsomes (MLMs) activated by NADPH by measuring the substrate residual after 1 h. For comparative purposes, Synta66 was incubated in the same conditions.
Phase I and II (glucuronidation) incubations were performed in MLMs (pooled male mouse CD-1, protein concentration: 20 mg/mL, purchased from Corning B.V. Life Sciences—Amsterdam, The Netherlands) using the procedure previously described[16] with the following modifications: 5 μM substrate concentration for the determination of the residual percentage and 50 μM for 34 metabolite characterization by HRMS; when metabolic activation was studied, 3 mM GSH trapping agent was added in the incubation mixture.

The mark [9] stands for this setting: intravenous, Table S6, single administration, e.v., n=5.
Setting [10] is: iv, mice, i.v., once, read-out: half-life (t1/2) (converted).

Structures are written as SMILES. Entries after “also recorded” stand apart in the source; their conditions may differ.

With `CCCC(C)OC(=O)c1cnn(-c2ccc(-n3cc(-c4cccc(C(=O)O)c4)nn3)cc2)c1C(F)(F)F` (stereo not shown) [Compound 3], the IC50 (commonly the concentration at which inhibition is half-maximal) in data set [1] was 4.4 µM. Also, the “efficacy in cerulein-induced AP” value in data set [2] is given as “demonstrated efficacy; also recorded: significantly ameliorate cerulein-induced AP in rodents without signs of toxicity”.

Regarding `COc1cccc(-c2ccc(-n3cc(-c4cccc(C(=O)O)c4)nn3)cc2)c1OC` [Compound 34, 3-(1-(2′,3′-Dimethoxy-[1,1′-biphenyl]-4-yl)-1H-1,2,3-triazol-4-yl)benzoic Acid], the “histological scores of pancreatic tissue (H&E), inflammation and edema” value in data set [3] is reported as “significantly ameliorate the histological scores; also recorded: efficacy in a mouse model of cerulein-induced AP”. In addition, the “AUC compared to the reference compound Synta66” value in data set [4] is “significantly reducing the AUC”. In addition, the “AUC, peak amplitude, and slope of the Ca2+-rise” value in data set [4] (selected compounds) is given as “induced a drop in the three parameters”. For the same compound, the “solubilization at 6 mg/mL in saline containing 10% DMSO + 20% PEG400” value in data set [5] (nominal concentration 6 mg/mL, vehicle for in vivo administration) is listed as “limpid solution”. Moreover, in data set [5] (sodium salts), the “increase in aqueous solubility of 34 compared to 36” value was 80 fold. In data set [5] (thermodynamic, deionized water, 25 °C overnight, biphenyl triazoles as sodium salts, read-out: H2O solubility), the solubility (in general, the concentration that dissolves in the medium under given conditions) was found to be 1530 µg/mL. For the same compound, the “cytotoxicity in HEK cells up to 60 μM” value in data set [6] is “no detectable cytotoxicity”. Besides, in data set [7] (setting [9]), the peak level (Cmax) was 16800 ng/mL and the Tmax (usually the time from dosing to the highest level) came out at 0.2 h. Also, the concentration in data set [7] (iv, mice, once) peaked (Cmax) at 16800 ng/mL. Further, in data set [7] (iv, mice, i.v., once, read-out: clearance (Cl) (converted)), the clearance (commonly the volume of plasma or blood freed of the substance per unit of time) at 24 h was 8.33 mL/min/kg. Further, in data set [7] (setting [10]), the half-life is 3.21 h and the half-life at 24 h is 3.2 h. For the same compound, the “formation of glutathione (GSH) adducts” value in data set [8] was “did not highlight the formation of glutathione (GSH) adducts”.

(Values after publication PMC7735735, “Store-Operated Calcium Entry as a Therapeutic Target in Acute Pancreatitis: Discovery and Development of Drug-Like SOCE Inhibitors” (Journal of Medicinal Chemistry, 2020).)
